Data: ChEMBL document CHEMBL5046289, “Targeting the S2 Subsite Enables the Structure-Based Discovery of Novel Highly Selective Factor XIa Inhibitors” (J Med Chem, 2022)
The source made the active and inactive calls. The rule behind the calls is not given here.

Columns and labels:
[1] = biological target: T1, Prothrombin (Homo sapiens, UniProt P00734); experiment: Inhibition of thrombin (unknown origin) assessed as chromogenic substrate using CS-10(38) as substrate at 1 mM incubated for 1 hr by spectrophotometer based microplate reader method
[2] = biological target: T2, Coagulation factor XI (Homo sapiens, UniProt P03951); experiment: Inhibition of coagulation factor XIa (unknown origin) assessed as chromogenic substrate hydrolysis using CS-21(66) as substrate incubated for 1 hr by spectrophotometer based microplate reader method
[3] = biological target: Plasma kallikrein (Homo sapiens, UniProt P03952); experiment: Inhibition of plasma kallikrein (unknown origin) assessed as chromogenic substrate hydrolysis using CS-31(02) as substrate incubated for 1 hr by spectrophotometer based microplate reader method
[4] = species: Homo sapiens; experiment: Selectivity index, ratio of IC50 for plasma kallikrein (unknown origin) to IC50 for coagulation factor XIa (unknown origin)
[5] = biological target: Coagulation factor X (Homo sapiens, UniProt P00742); experiment: Inhibition of coagulation factor Xa (unknown origin) assessed as chromogenic substrate using CS-11(22) as substrate incubated for 1 hr by spectrophotometer based microplate reader method
[6] = biological target: T3, Coagulation factor XII (Homo sapiens) (UniProt P00748); experiment: Inhibition of coagulation factor XIIa (unknown origin) assessed as chromogenic substrate using TH5253 as substrate at 1 mM incubated for 1 hr by spectrophotometer based microplate reader method
T3 sequence (whole entry): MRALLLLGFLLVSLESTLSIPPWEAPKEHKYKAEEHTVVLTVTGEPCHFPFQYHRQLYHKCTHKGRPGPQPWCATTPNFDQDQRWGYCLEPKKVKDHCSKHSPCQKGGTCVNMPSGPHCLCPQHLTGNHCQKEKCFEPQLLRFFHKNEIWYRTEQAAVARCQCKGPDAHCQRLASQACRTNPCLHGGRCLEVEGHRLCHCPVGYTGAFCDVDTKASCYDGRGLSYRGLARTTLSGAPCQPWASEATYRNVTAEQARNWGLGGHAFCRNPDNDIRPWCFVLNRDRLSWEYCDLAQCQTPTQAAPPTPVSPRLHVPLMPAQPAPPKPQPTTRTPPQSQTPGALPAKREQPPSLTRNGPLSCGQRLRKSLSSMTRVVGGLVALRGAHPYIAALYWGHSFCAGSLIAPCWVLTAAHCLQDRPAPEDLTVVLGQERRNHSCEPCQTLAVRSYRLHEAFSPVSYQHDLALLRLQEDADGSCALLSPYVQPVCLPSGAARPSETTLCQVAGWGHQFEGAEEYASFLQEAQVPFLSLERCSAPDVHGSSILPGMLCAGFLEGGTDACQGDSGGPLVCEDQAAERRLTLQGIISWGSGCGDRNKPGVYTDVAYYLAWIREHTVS

[7] = biological target: Coagulation factor IX (Homo sapiens) (UniProt P00740); experiment: Inhibition of coagulation factor IXa (unknown origin) assessed as chromogenic substrate using ADG299 as substrate at 1 mM incubated for 1 hr by spectrophotometer based microplate reader method
[8] = biological target: T4, Coagulation factor VII (Homo sapiens) (UniProt P08709); experiment: Inhibition of coagulation factor VIIa (unknown origin) assessed as chromogenic substrate using chromozyme t-PA as substrate at 1 mM incubated for 1 hr by spectrophotometer based microplate reader method
T4 sequence (whole entry): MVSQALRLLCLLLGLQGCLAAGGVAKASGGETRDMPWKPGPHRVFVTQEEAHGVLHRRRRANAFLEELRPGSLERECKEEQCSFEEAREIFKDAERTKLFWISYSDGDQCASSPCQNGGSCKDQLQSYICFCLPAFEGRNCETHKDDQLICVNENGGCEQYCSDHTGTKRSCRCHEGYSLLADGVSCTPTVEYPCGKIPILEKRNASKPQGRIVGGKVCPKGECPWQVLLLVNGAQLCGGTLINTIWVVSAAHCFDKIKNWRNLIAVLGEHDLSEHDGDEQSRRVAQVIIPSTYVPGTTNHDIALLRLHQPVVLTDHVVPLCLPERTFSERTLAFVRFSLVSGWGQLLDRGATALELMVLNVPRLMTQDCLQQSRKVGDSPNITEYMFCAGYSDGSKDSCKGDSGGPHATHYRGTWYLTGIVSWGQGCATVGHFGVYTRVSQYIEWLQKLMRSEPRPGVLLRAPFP

[9] = biological target: Serine protease 1 (Homo sapiens) (UniProt P07477); experiment: Inhibition of trypsin (unknown origin) assessed as chromogenic substrate using CS-11(22) as substrate at 1 mM incubated for 1 hr by spectrophotometer based microplate reader method
[10] = biological target: T1, Prothrombin; experiment: Inhibition of thrombin (unknown origin) assessed as chromogenic substrate using CS-10(38) as substrate incubated for 1 hr by spectrophotometer based microplate reader method
[11] = species: Homo sapiens; experiment: Selectivity index, ratio of IC50 for coagulation factor Xa (unknown origin) to IC50 for coagulation factor XIa (unknown origin)
[12] = species: Homo sapiens; experiment: Selectivity index, ratio of IC50 for coagulation factor XIIa (unknown origin) to IC50 for coagulation factor XIa (unknown origin)
[13] = species: Homo sapiens; experiment: Selectivity index, ratio of IC50 for coagulation factor IXa (unknown origin) to IC50 for coagulation factor XIa (unknown origin)
[14] = species: Homo sapiens; experiment: Selectivity index, ratio of IC50 for coagulation factor VIIa (unknown origin) to IC50 for coagulation factor XIa (unknown origin)
[15] = species: Homo sapiens; experiment: Selectivity index, ratio of IC50 for trypsin (unknown origin) to IC50 for coagulation factor XIa (unknown origin)
[16] = species: Homo sapiens; experiment: Selectivity index, ratio of IC50 for thrombin (unknown origin) to IC50 for coagulation factor XIa (unknown origin)
[17] = biological target: T2, Coagulation factor XI; conditions: dose 50.0 nM, time 1.0 hrs

T2 sequence (P03951 19-387 limits assumed): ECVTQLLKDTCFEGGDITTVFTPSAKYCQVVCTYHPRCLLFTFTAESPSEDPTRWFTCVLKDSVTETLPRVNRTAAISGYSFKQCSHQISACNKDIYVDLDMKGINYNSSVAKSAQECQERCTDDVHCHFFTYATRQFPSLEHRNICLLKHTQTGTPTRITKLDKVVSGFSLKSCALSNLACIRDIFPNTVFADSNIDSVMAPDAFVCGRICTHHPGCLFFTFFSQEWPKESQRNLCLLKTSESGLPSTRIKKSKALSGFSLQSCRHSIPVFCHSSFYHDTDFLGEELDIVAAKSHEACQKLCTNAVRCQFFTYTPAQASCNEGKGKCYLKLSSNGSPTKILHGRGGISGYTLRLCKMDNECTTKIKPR
T2 sequence (P03951 388-625 limits assumed): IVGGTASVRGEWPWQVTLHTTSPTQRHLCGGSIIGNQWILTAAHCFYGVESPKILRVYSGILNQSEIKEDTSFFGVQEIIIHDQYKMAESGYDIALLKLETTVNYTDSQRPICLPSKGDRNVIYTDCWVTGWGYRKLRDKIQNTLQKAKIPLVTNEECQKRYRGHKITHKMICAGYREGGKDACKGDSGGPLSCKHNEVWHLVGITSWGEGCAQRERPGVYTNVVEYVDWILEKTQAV
Sequence of Coagulation factor IX (Homo sapiens) (P00740 47-191 limits assumed): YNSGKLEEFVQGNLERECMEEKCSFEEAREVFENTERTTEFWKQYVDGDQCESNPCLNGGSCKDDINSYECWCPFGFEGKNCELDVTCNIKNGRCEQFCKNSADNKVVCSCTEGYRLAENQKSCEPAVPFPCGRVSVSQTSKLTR
Sequence of Coagulation factor IX (Homo sapiens) (P00740 227-461 limits assumed): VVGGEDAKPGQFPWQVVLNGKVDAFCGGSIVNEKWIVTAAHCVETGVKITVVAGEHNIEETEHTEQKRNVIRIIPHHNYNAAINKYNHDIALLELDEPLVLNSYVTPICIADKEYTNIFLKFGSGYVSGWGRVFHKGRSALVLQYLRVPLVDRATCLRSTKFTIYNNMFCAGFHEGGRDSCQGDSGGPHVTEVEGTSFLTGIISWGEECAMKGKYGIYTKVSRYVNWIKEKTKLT
Sequence of Coagulation factor X (P00742 41-179 limits assumed): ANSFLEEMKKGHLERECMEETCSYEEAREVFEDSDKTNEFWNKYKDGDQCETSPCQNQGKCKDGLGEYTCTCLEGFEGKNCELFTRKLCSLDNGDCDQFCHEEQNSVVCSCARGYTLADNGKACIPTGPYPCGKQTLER
Sequence of Coagulation factor X (P00742 235-488 limits assumed): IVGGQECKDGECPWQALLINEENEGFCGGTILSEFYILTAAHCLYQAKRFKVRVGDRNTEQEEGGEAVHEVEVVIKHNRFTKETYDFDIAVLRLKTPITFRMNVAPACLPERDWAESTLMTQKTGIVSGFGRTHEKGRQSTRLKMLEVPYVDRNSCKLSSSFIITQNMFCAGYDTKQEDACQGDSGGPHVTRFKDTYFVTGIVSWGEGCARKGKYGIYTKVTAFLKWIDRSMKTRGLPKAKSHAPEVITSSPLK
Sequence of Plasma kallikrein (P03952 20-390 limits assumed): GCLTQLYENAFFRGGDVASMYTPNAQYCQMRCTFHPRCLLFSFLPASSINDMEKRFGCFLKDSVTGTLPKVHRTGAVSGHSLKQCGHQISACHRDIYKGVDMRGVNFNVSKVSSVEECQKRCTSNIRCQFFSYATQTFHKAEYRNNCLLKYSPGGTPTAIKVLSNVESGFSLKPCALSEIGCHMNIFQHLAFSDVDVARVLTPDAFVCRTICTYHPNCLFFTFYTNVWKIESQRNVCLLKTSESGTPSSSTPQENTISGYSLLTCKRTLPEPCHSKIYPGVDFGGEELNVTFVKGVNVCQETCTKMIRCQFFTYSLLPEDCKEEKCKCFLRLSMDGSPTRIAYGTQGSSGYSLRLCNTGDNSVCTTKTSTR
Sequence of Plasma kallikrein (P03952 391-638 limits assumed): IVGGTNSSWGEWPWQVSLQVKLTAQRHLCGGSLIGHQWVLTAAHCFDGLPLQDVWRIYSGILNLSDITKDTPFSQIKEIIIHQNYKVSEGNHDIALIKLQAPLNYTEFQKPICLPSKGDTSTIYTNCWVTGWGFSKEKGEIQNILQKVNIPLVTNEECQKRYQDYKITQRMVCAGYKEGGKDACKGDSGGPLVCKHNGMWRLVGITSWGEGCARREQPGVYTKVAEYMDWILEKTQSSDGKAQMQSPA
Sequence of Serine protease 1 (Homo sapiens) (P07477 whole entry): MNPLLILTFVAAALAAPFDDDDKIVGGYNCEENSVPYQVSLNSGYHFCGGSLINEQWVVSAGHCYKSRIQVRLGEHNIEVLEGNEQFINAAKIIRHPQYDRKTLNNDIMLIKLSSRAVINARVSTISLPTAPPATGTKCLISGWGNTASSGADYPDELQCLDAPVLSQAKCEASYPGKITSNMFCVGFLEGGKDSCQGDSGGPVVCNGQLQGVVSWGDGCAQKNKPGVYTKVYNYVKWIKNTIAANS

In the case of `O=C(/C=C/c1cc(Cl)ccc1-n1cnnn1)N[C@@H](CC(=O)N1CCSCC1)C(=O)Nc1ccc(C(=O)O)cc1`, the inhibition [1] is reported as “inactive”, the IC50 [2] is reported as 0.0185 µM and the IC50 [3] is reported as 14 µM. The Ratio IC50 [4] was 756, the IC50 [5] was 980 µM and the inhibition [6] was “inactive”. The inhibition [7] was “inactive”, the inhibition [8] was “inactive” and the inhibition [9] was “inactive”. For the same molecule, the inhibition [10] was “inactive”, the Ratio IC50 [11] was > 5000 and the Ratio IC50 [12] was > 5000. For the same molecule, the Ratio IC50 [13] was > 5000, the Ratio IC50 [14] was > 5000 and the Ratio IC50 [15] was > 5000. For the same molecule, the Ratio IC50 [16] was > 5000 and the inhibition [17] was 52.3%.
